# Measurements: US10244779B2, “Method of improving stability of sweet enhancer and composition containing stabilized sweet enhancer” (SENOMYX, INC., priority 2010, dated 2019)
# Assays:
# [1] = Photostability of Compound A in various mediums (water, brewed coffee, tea, TBHQ in water; FIG. 1); format: physicochemical; conditions: TBHQ 200 ppm in water
# Description: The equivalent sunlight exposure time for 24 hours in the Q-Sun at a constant temperature of 25° C. and irradiance of 450 mW/m^2 @340 nm is estimated to be equivalent to approximately 15.9 days of direct sunlight in the Southwestern United States.
# FIG. 1 illustrates the effect of coffee and tea on rate of photo-degradation of Compound A relative to water alone.
melting point [°C],effect on the rate of photo-degradation of Compound A [1],Compound
170 to 172,–,"Cc1nc2cccc(OCC(C)(C)C(=O)NCC3CCC3)c2c(N)c1C(=O)O [Example 151, 4-amino-5-(3-((cyclobutylmethyl)amino)-2,2-dimethyl-3-oxopropoxy)-2-methylquinoline-3-carboxylic Acid]"
227 to 229,–,"Cc1nc2cccc(OCC(C)(C)C(=O)NC3CC3)c2c(N)c1C(=O)O [Example 135, 4-amino-5-(3-(cyclopropylamino)-2,2-dimethyl-3-oxopropoxy)-2-methyl-quinoline-3-carboxylic Acid]"
–,marginal effect,CC(C)(C)c1cc(O)ccc1O [tert-butyl hydroquinone]
168 to 170,–,"CCNC(=O)C(C)(C)COc1cccc2nc(C)c(C(=O)O)c(N)c12 [Example 144, 4-amino-5-(3-(ethylamino)-2,2-dimethyl-3-oxopropoxy)-2-methylquinoline-3-carboxylic Acid]"
220 to 221.5,–,"Cc1nc2cccc(OC3CCCCC3)c2c(N)c1C(=O)O [Example 36, 4-amino-5-(cyclohexyloxy)-2-methylquinoline-3-carboxylic Acid]"
184 to 186,–,"Cc1nc2cccc(OCC(C)(C)NC(=O)C(C)C)c2c(N)c1C(=O)O [Example 139, 4-amino-5-(2-isobutyramido-2-methylpropoxy)-2-methylquinoline-3-carboxylic Acid]"
225 to 226,–,"CCCNC(=O)C(C)(C)COc1cccc2c1C(N)=NS(=O)(=O)N2 [Example 197, 3-(4-Amino-2,2-dioxide-1H-benzo[c][1,2,6]thiadiazin-5-yloxy)-2′,2′-dimethyl-N-propylpropanamide]"
173 to 175,–,"Cc1nc2cccc(OCC(C)(C)NC(=O)CN3CCOCC3)c2c(N)c1C(=O)O [Example 149, 4-amino-2-methyl-5-(2-methyl-2-(2-morpholinoacetamido)propoxy)quinoline-3-carboxylic Acid]"
177 to 179,–,"Cc1nc2cccc(OCC(C)(C)C(=O)NCC3CC3)c2c(N)c1C(=O)O [Example 146, 4-amino-5-(3-((cyclopropylmethyl)amino)-2,2-dimethyl-3-oxopropoxy)-2-methylquinoline-3-carboxylic Acid]"
172 to 174,–,"CCC(CC)NC(=O)C(C)(C)COc1cccc2nc(C)c(C(=O)O)c(N)c12 [Example 148, 4-amino-5-(2,2-dimethyl-3-oxo-3-(pentan-3-ylamino)propoxy)-2-methyl-quinoline-3-carboxylic Acid]"
195 to 198,–,"Cc1nc2cccc(OCC(C)(C)NC(=O)c3cccc(O)c3)c2c(N)c1C(=O)O [Example 25, 4-amino-5-(2-(3-hydroxybenzamido)-2-methylpropoxy)-2-methylquinoline-3-carboxylic Acid]"
189 to 193,–,"CCC(=O)NC(C)(C)COc1cccc2nc(C)c(C(=O)O)c(N)c12 [Example 141, 4-amino-2-methyl-5-(2-methyl-2-propionamidopropoxy)quinoline-3-carboxylic Acid]"
195 to 198,–,"Cc1nc2cccc(OCC(C)(C)NC(=O)c3ccncc3)c2c(N)c1C(=O)O [Example 24, 4-amino-5-(2-(isonicotinamido)-2-methylpropoxy)-2-methylquinoline-3-carboxylic Acid]"
229 to 230,–,"CCCOc1cccc2c1C(N)=NS(=O)(=O)N2 [Example 158, 4-Amino-5-(propyloxy)-1H-benzo[c][1,2,6]thiadiazine-2,2-dioxide]"
175 to 178,–,"Cc1nc2cccc(OCC(C)(C)NC(=O)CC3CCOCC3)c2c(N)c1C(=O)O [Example 145, 4-amino-2-methyl-5-(2-methyl-2-(2-(tetrahydro-2H-pyran-4-yl)acetamido)-propoxy)quinoline-3-carboxylic Acid]"
184 to 186,–,"Cc1nc2cccc(OC3CCN(C(=O)C(C)C)CC3)c2c(N)c1C(=O)O [Example 143, 4-amino-5-((1-isobutyrylpiperidin-4-yl)oxy)-2-methylquinoline-3-carboxylic Acid]"
168 to 170,–,"CCC(=O)N1CCC(COc2cccc3nc(C)c(C(=O)O)c(N)c23)CC1 [Example 153, 4-amino-2-methyl-5-((1-propionylpiperidin-4-yl)methoxy)quinoline-3-carboxylic Acid]"
195 to 199,–,"CCCCNC(=O)C(C)(C)COc1cccc2nc(C)c(C(=O)O)c(N)c12 [Example 147, 4-amino-5-(3-(butylamino)-2,2-dimethyl-3-oxopropoxy)-2-methylquinoline-3-carboxylic Acid]"
235 to 236,–,"CC(C)(COc1cccc2c1C(N)=NS(=O)(=O)N2)NC(=O)c1ccccc1 [Example 198, N-(1-(4-amino-2,2-dioxide-1H-benzo[c][1,2,6]thiadiazin-5-yloxy)-2′-methylpropan-2′-yl)benzamide]"
183 to 185,–,"Cc1nc2cccc(O[C@H]3CC[C@H](NC(=O)C(C)C)CC3)c2c(N)c1C(=O)O [Example 137, 4-amino-5-(((1,4)-trans-4-isobutyramidocyclohexyl)oxy)-2-methylquinoline-3-carboxylic Acid]"
183 to 187,–,"Cc1nc2cccc(OCC(C)(C)C(=O)NC3CCC3)c2c(N)c1C(=O)O [Example 136, 4-amino-5-(3-(cyclobutylamino)-2,2-dimethyl-3-oxopropoxy)-2-methylquinoline-3-carboxylic Acid]"

Compound,melting point [°C],effect on the rate of photo-degradation of Compound A [1]
"CCC(CC)COc1cccc2nc(C)c(C(=O)O)c(N)c12 [Example 22, 4-amino-5-(2-ethylbutoxy)-2-methylquinoline-3-carboxylic Acid]",145 to 151,–
